Reference: ChEMBL document CHEMBL4619804, “Target-Based Identification and Optimization of 5-Indazol-5-yl Pyridones as Toll-like Receptor 7 and 8 Antagonists Using a Biochemical TLR8 Antagonist Competition Assay” (J Med Chem, 2020)
pIC50, pKd: −log10 of the molar value.

Assays:
Toll-like receptor 8 [1] = target: T1, Toll-like receptor 8 (Homo sapiens, UniProt Q9NR97); assay: biochemical
T1 sequence (Q9NR97 whole entry): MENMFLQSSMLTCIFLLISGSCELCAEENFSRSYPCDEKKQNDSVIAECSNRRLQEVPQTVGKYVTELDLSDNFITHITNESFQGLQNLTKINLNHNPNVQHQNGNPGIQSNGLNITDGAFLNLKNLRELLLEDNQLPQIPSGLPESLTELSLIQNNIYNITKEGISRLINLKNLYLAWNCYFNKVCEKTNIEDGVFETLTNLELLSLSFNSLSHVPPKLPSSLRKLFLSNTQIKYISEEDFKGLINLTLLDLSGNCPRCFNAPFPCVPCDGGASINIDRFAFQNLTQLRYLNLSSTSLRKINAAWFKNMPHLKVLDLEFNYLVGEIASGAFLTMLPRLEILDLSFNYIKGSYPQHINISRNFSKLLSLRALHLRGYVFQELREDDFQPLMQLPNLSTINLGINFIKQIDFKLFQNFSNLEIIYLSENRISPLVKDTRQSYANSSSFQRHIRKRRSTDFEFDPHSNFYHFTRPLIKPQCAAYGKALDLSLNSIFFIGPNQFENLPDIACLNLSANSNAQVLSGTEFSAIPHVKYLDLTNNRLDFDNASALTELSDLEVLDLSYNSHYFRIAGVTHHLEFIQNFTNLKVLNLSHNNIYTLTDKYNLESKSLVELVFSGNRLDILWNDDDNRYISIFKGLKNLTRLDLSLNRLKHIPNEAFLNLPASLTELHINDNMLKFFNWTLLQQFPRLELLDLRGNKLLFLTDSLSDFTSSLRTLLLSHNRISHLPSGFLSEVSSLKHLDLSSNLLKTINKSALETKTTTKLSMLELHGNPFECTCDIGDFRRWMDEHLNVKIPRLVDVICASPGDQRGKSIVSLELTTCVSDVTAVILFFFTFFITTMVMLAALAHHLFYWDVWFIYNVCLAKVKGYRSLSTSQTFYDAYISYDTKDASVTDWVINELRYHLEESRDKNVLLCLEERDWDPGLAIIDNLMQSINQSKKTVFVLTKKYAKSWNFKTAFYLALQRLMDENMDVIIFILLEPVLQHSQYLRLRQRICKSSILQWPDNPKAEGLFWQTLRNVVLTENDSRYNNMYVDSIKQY
Description: Binding affinity to human TLR8 extracellular domain (27 to 827 residues) expressed in Drosophila S2 cells by fluorescence polarization assay

Toll-like receptor 8 [2] = target: T1, Toll-like receptor 8; assay: biochemical; remark: listed apart in the source
Toll-like receptor 9 = target: T2, Toll-like receptor 9 (Homo sapiens, UniProt Q9NR96); assay: Antagonist activity at TLR9 in human PBMC assessed as inhibition of ODN2216-induced IFNalpha production preincubated for 30 mins followed by ODN2216 addition and measured after 20 hrs by alphaLISA; assay type: cell-based
T2 sequence (Q9NR96 whole entry): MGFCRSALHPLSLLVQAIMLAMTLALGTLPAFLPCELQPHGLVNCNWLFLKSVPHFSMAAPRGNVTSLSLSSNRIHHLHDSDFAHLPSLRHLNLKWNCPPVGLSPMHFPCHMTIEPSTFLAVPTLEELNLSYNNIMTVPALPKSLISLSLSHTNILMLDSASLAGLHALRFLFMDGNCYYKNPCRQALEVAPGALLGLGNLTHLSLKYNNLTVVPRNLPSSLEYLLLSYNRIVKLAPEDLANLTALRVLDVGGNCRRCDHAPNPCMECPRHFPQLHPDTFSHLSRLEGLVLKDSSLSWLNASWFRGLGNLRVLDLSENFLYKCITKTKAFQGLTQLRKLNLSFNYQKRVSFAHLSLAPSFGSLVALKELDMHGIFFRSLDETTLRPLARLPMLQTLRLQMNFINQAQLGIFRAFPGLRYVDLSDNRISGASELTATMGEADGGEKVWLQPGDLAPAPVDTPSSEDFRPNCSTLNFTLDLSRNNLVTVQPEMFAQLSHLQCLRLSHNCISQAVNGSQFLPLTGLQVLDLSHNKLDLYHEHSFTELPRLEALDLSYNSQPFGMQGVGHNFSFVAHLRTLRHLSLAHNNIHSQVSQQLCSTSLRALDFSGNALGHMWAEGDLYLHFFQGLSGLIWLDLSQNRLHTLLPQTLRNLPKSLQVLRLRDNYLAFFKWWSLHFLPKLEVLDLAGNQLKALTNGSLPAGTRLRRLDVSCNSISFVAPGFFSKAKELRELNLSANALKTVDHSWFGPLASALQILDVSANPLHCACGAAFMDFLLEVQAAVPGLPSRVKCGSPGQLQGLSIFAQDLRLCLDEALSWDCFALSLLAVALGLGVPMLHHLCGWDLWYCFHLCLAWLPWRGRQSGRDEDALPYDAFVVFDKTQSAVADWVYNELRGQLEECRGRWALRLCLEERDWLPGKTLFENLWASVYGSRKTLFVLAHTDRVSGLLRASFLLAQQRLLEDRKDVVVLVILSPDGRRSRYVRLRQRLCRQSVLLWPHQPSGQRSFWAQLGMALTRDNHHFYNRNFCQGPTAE

Toll-like receptor 4 = Toll-like receptor 4 (Homo sapiens, UniProt O00206); assay: Antagonist activity at TLR4 in human PBMC assessed as inhibition of LPS-induced TNFalpha production preincubated for 30 mins followed by LPS addition and measured after 20 hrs by HTRF assay; assay type: cell-based
Cytochrome P450 3A4 = Cytochrome P450 3A4 (Homo sapiens, UniProt P08684); assay: Inhibition of CYP3A4 (unknown origin); assay type: ADME
Toll-like receptor 7 = target: T3, Toll-like receptor 7 (Homo sapiens, UniProt Q9NYK1); assay: Antagonist activity at TLR7 in human PBMC assessed as inhibition of DOTAP-ssRNA40 induced IFNalpha production preincubated for 30 mins followed by ssRNA40 addition measured after 20 hrs by alphaLISA; assay type: cell-based
T3 sequence (Q9NYK1 whole entry): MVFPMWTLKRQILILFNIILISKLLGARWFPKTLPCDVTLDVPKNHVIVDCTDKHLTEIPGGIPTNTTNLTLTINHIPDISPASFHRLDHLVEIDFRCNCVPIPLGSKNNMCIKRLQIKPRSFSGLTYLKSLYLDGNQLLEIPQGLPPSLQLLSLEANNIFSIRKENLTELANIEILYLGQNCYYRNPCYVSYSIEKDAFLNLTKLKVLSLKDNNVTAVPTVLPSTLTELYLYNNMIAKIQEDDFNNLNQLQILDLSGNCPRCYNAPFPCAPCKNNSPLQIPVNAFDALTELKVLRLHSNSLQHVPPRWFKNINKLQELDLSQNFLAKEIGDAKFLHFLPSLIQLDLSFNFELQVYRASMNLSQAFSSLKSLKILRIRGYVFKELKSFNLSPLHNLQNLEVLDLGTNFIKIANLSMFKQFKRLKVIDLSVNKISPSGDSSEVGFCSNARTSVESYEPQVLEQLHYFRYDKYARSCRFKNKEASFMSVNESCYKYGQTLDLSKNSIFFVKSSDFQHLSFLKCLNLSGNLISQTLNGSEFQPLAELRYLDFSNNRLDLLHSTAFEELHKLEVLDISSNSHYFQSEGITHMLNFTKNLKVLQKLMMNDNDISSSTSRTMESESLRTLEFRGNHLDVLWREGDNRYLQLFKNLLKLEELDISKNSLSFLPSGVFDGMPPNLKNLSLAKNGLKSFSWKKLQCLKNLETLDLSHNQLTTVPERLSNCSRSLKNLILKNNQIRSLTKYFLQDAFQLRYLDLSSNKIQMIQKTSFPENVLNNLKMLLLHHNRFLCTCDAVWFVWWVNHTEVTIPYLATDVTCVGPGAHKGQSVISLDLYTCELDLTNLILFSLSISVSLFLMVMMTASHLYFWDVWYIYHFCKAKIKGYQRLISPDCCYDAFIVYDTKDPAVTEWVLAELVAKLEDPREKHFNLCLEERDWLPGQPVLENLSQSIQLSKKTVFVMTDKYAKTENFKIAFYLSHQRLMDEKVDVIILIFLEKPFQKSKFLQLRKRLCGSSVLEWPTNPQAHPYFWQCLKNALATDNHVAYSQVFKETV

Toll-like receptor 4, sequence (O00206 whole entry): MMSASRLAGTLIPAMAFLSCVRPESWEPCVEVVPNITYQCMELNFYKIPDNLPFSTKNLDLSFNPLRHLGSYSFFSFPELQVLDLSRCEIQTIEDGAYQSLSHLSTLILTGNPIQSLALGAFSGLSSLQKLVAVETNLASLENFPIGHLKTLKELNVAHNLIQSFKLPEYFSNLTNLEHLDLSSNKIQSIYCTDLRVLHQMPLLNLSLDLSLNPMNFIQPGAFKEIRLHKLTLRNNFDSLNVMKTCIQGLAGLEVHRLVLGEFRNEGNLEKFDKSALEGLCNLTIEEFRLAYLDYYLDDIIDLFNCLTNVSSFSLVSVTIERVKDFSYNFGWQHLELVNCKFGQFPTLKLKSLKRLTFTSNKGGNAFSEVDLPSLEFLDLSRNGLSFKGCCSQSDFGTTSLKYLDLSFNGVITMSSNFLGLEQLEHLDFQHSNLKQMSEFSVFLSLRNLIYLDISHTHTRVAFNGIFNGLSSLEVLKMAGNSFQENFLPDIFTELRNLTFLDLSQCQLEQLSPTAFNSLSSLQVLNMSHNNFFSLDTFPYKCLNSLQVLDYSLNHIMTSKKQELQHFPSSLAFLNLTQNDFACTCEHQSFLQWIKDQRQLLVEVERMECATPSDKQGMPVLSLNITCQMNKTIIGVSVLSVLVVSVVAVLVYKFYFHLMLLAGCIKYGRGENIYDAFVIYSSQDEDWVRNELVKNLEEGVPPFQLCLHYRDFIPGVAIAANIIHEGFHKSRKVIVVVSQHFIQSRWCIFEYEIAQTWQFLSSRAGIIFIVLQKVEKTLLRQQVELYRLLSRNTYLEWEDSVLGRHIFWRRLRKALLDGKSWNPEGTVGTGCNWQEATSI
Cytochrome P450 3A4, sequence (P08684 whole entry): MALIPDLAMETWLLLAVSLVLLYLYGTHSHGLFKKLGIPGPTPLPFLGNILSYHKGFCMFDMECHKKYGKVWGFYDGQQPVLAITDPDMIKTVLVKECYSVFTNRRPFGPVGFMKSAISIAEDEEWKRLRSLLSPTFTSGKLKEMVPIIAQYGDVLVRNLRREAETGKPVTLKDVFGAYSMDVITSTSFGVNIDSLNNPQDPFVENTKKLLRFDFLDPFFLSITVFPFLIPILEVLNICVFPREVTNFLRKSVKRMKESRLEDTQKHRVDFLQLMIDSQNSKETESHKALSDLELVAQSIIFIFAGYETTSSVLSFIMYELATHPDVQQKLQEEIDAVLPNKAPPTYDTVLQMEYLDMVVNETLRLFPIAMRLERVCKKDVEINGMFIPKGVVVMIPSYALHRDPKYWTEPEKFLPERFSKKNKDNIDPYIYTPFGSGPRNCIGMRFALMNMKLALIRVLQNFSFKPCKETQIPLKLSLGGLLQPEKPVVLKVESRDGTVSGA

Row | pIC50 (Toll-like receptor 9) | SMILES | other results
1 |  | CC[N+]1=C(/C=C/C=C/C=C2/N(CCCCCC(=O)NC34CCC(COc5ncc(-c6ccnc7[nH]ncc67)cc5C)(CC3)CC4)c3ccc(S(=O)(=O)O)cc3C2(C)C)C(C)(C)c2cc(S(=O)(=O)O)ccc21 | pKd (Toll-like receptor 8 [1]): 7.19
2 |  | Cc1cc(-c2ccnc3[nH]ncc23)cnc1OCC12CCC(N)(CC1)CC2 | pIC50 (Toll-like receptor 8 [2]): 7.17
3 | 5.70 | Cc1cc(-c2ccc(=O)n(C)c2)cc2cn(C3CCNCC3)nc12 | 
4 | < 5.00 | Cc1cc(-c2ccc(=O)n(C)c2C)cc2cn(C3CCNCC3)nc12 | pIC50 (Toll-like receptor 4): < 5.00; pIC50 (Cytochrome P450 3A4): < 4.70
5 | < 5.00 | Cc1cc(-c2ccc(=O)n(C)c2)cc2cnc(N3CCN(C(C)C)CC3)nc12 | pIC50 (Toll-like receptor 7): < 5.00
6 | 5.66 | Cn1cc(-c2ccc3nc(N4CCN(C5CCC5)CC4)ncc3c2)ccc1=O | 
7 | 5.14 | Cc1cc(=O)n(C)cc1-c1cc(C)c2nn(C3CCNCC3)cc2c1 | pIC50 (Toll-like receptor 4): < 5.38
8 | 6.70 | Cc1cc(-c2cc(C)c3nn(C4CCNCC4)cc3c2)cn(C)c1=O | 
